The structures appear in SMILES notation.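 Compound exposure: 48 hours, 5 concentrations, 96-well plates. TGI is the concentration that stops growth completely.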

Some test systems named below: ACHN renal; UACC-62 melanoma; OVCAR-5 ovarian; SNB-19 CNS; CAKI-1 renal; M14 melanoma; OVCAR-3 ovarian; HOP-62 NSCLC; EKVX NSCLC; UACC-257 melanoma; COLO 205 colon; SK-MEL-28 melanoma; MALME-3M melanoma; SNB-75 CNS; SF-295 CNS; U251 CNS; HCT-116 colon; SF-268 CNS; RXF 393 renal.
Holding throughout (experiment): inhibition of tumour cell growth, NCI panel, 48 h

As for `COc1cc(C2SCC(=O)N2c2ccc(-c3ccc(-n4c(-c5ccccc5)nc5ccccc5c4=O)cc3)cc2)ccc1O` (configuration not stated), the TGI with ACHN renal, in the experiment with UACC-62 melanoma, in the experiment with OVCAR-5 ovarian, with SNB-19 CNS, in the experiment with CAKI-1 renal and in the experiment on M14 melanoma was greater than 100 µM each time. Also, the TGI in the experiment on OVCAR-3 ovarian, in the experiment on HOP-62 NSCLC, with EKVX NSCLC, in the experiment on UACC-257 melanoma, in the experiment on COLO 205 colon and with SK-MEL-28 melanoma was greater than 100 µM throughout. Moreover, the TGI with MALME-3M melanoma is greater than 100 µM; in the experiment on SNB-75 CNS, 49.8 µM; in the experiment with SF-295 CNS it was greater than 100 µM; in the experiment on U251 CNS, greater than 100 µM; with HCT-116 colon it was greater than 100 µM; in the experiment with SF-268 CNS, greater than 100 µM.
In the case of `COc1ccc(OC)c(C2CCCc3c2cnc2nc(N)nc(N)c32)c1` (configuration not stated), the TGI in the experiment on ACHN renal, with UACC-62 melanoma, in the experiment with SNB-19 CNS, in the experiment with CAKI-1 renal, in the experiment on M14 melanoma and with OVCAR-3 ovarian was greater than 100 µM each time. For the same molecule, the TGI with HOP-62 NSCLC, in the experiment on EKVX NSCLC, in the experiment with UACC-257 melanoma, in the experiment on COLO 205 colon, in the experiment on SK-MEL-28 melanoma and in the experiment with MALME-3M melanoma was greater than 100 µM each time. Besides, the TGI in the experiment with SNB-75 CNS was 41 µM; in the experiment with SF-295 CNS, greater than 100 µM; with U251 CNS, greater than 100 µM; with HCT-116 colon it was greater than 100 µM; in the experiment on SF-268 CNS it was greater than 100 µM.
Take `CCN(CC)CCCC(C)NC(=O)c1cc(-c2nccn2C)nc2ccc(C)cc12` (configuration not stated): the TGI in the experiment with ACHN renal, in the experiment on UACC-62 melanoma, with OVCAR-5 ovarian, with SNB-19 CNS, with CAKI-1 renal and with M14 melanoma was greater than 100 µM in each case. Also, the TGI in the experiment with HOP-62 NSCLC, in the experiment on EKVX NSCLC, with UACC-257 melanoma, with COLO 205 colon, with SK-MEL-28 melanoma and in the experiment on MALME-3M melanoma was greater than 100 µM throughout. Moreover, the TGI in the experiment on SNB-75 CNS, in the experiment with RXF 393 renal, with U251 CNS, with HCT-116 colon and with SF-268 CNS was greater than 100 µM each time.
With `CC1(C)N(OC2CCCCO2)C(c2ccccc2)C(c2ccccc2)=[N+]1[O-]` (configuration not stated), the TGI in the experiment with ACHN renal, in the experiment on UACC-62 melanoma, in the experiment on OVCAR-5 ovarian, in the experiment on SNB-19 CNS, in the experiment with CAKI-1 renal and in the experiment on M14 melanoma was greater than 100 µM in each case. Also, the TGI in the experiment with OVCAR-3 ovarian, in the experiment on HOP-62 NSCLC, with EKVX NSCLC, with UACC-257 melanoma, in the experiment with COLO 205 colon and with SK-MEL-28 melanoma was greater than 100 µM throughout. Moreover, the TGI with MALME-3M melanoma, in the experiment with SNB-75 CNS, in the experiment with RXF 393 renal, in the experiment on SF-295 CNS, in the experiment with U251 CNS and in the experiment with HCT-116 colon was greater than 100 µM throughout.
On to `CC(=O)c1ccc(N2CCN(c3c(O)c4c(c(O)c3Cl)C(=O)C=CC4=O)CC2)cc1`, for which the TGI with UACC-62 melanoma turned out to be 7.37 µM; in the experiment on OVCAR-5 ovarian, 33 µM; with SNB-19 CNS it was 35.7 µM; in the experiment with CAKI-1 renal, 11.8 µM; with M14 melanoma, 6.76 µM; in the experiment with OVCAR-3 ovarian, 18.2 µM. The TGI in the experiment on HOP-62 NSCLC is 21 µM; with EKVX NSCLC, 46.7 µM; with UACC-257 melanoma it was 24.1 µM; in the experiment with COLO 205 colon, 8.91 µM; in the experiment with SK-MEL-28 melanoma it was 16.8 µM; in the experiment on MALME-3M melanoma, 23.5 µM. The TGI with SNB-75 CNS turned out to be 26.6 µM; with RXF 393 renal it was 9.44 µM; in the experiment on SF-295 CNS, 33.9 µM; in the experiment with U251 CNS, 11.9 µM; in the experiment with HCT-116 colon, 11.9 µM; in the experiment on SF-268 CNS, 8.12 µM.
Turning to `O=c1c2c(sc3ccccc13)NCN(CCc1ccccc1)C2`, the TGI in the experiment on ACHN renal is greater than 100 µM; with UACC-62 melanoma, greater than 100 µM; in the experiment with OVCAR-5 ovarian, greater than 100 µM; in the experiment with SNB-19 CNS, greater than 100 µM; in the experiment on CAKI-1 renal it was greater than 100 µM; in the experiment on M14 melanoma it was 84.4 µM. The TGI in the experiment on OVCAR-3 ovarian was greater than 100 µM; in the experiment on HOP-62 NSCLC, greater than 100 µM; in the experiment with EKVX NSCLC, greater than 100 µM; with UACC-257 melanoma, greater than 100 µM; with COLO 205 colon it was 37 µM; in the experiment on SK-MEL-28 melanoma, greater than 100 µM. Besides, the TGI was greater than 100 µM in the experiment with MALME-3M melanoma; 78.2 µM in the experiment on SNB-75 CNS; greater than 100 µM with RXF 393 renal; 43.5 µM in the experiment with SF-295 CNS; greater than 100 µM with U251 CNS; greater than 100 µM in the experiment on HCT-116 colon.
For the molecule `COC(=O)c1ccccc1/C=C1\Cc2cc3c(cc2C1=O)CCC3`, the TGI in the experiment on ACHN renal, in the experiment with UACC-62 melanoma, in the experiment with OVCAR-5 ovarian, in the experiment with SNB-19 CNS, in the experiment on CAKI-1 renal and in the experiment on M14 melanoma was greater than 100 µM in each case. Also, the TGI in the experiment on OVCAR-3 ovarian, in the experiment on HOP-62 NSCLC, with EKVX NSCLC, with UACC-257 melanoma, with COLO 205 colon and in the experiment on SK-MEL-28 melanoma was greater than 100 µM each time. Besides, the TGI with MALME-3M melanoma, in the experiment on SNB-75 CNS, in the experiment with SF-295 CNS, in the experiment with U251 CNS, in the experiment on HCT-116 colon and with SF-268 CNS was greater than 100 µM throughout.
Take `CC(=O)Nc1ccc2c3c(cc(O)c2c1)N(C(=O)CCCC(=O)Nc1ccc2c4c(cc(O)c2c1)N(C(=O)OC(C)(C)C)CC4CCl)CC3CCl` (configuration not stated): the TGI in the experiment with ACHN renal is 31.2 µM; with UACC-62 melanoma it was 2.31 µM; with OVCAR-5 ovarian, greater than 15.4 µM; with SNB-19 CNS, greater than 15 µM; in the experiment on CAKI-1 renal it was greater than 50 µM; in the experiment with M14 melanoma it was 13.2 µM. For the same molecule, the TGI was 2.89 µM with OVCAR-3 ovarian; greater than 25.2 µM in the experiment on HOP-62 NSCLC; greater than 35.3 µM in the experiment on EKVX NSCLC; 3.34 µM with UACC-257 melanoma; 6.05 µM in the experiment with COLO 205 colon; greater than 13 µM in the experiment with SK-MEL-28 melanoma. The TGI with MALME-3M melanoma is 2.75 µM; in the experiment with SNB-75 CNS, 12.6 µM; in the experiment on RXF 393 renal, 10.6 µM; with SF-295 CNS it was greater than 42.9 µM; in the experiment with U251 CNS, 4.38 µM; with HCT-116 colon it was greater than 50 µM.

For the origin of these results see PubChem BioAssay (NCI).
